This is an account of results in patent US20020094998A1, “Methods and compositions for treatment of ocular neovascularization and neural injury” (priority 2000, published 2002).

Series [1] concerns Brown Norway rats. As to the kind of experiment: Electroretinography (a-wave) after verteporfin PDT in rats treated i.p. with agent. The series is classed as in vivo, rat. Conditions: for A Wave Amplitude PDT Eye: ERG 3-4 hours after PDT; for A Wave Amplitude PDT Eye / A Wave Amplitude Control Eye: N 4; for A Wave Amplitude % Control: PDT eye vs control eye, * p ≦ 0.05 vs vehicle; for A Wave Amplitude Control Eye: eye not treated with PDT; for loss in retinal function induced by PDT: rats, i.p. 1 hour before PDT, a-wave amplitudes. The method, then: Brown Norway rats weighing 200-400 grams were treated intraperitoneally (i.p.) with either brimonidine, AGN 199960, or the saline vehicle. One hour later, the rats were unilaterally treated with PDT and evaluated by electroretinography 3-4 hours later. There were 4 rats in each treatment group.
PDT was conducted as follows: Mydriasis was induced in one eye of each rat with a drop of 0.5% tropicamide. Rats were then anesthetized with isoflurane and placed on a platform in front of a slit lamp coupled to a Coherent diode laser for verteporfin PDT (689 nm). Verteporfin was injected intravenously at a dose of 6 mg/m^2. […] Three to four hours later, the treated animals were again dilated and anesthetized, then electroretinograms (ERGs) were evaluated in each eye.
ERGs are collected non-invasively by measuring mass-cell response arising due to retinal activity proceeding from a light stimulus. The first cells stimulated by a flash light stimulation are the photoreceptors at the outer retinal layer. This response is measured as an a-wave. As the signal is transduced to inner retinal neurons, a b-wave is produced. The a-wave reflects activity in the photoreceptors and the b-wave reflects activity in both photoreceptors and bipolar cells.
Before being subjected to the ERG test, the rats were placed in the dark (dark-adapted) for 15 minutes. Two types of ERG apparatus were used to generate the results below. In the initial brimonidine experiment, each eye was evaluated separately. A Grass photostimulator was placed 10 cm from the recording eye and flashed a single white flash lasting 10 microseconds. A gold corneal ring electrode with a reference electrode attached to the lower eyelid detected retinal responses. For the AGN 199960 experiments, a Ganzfeld dome was used to generate a single flash and sensitive bipolar corneal electrodes were placed on both eyes, thus allowing simultaneous ERGs to be done. A cushioning agent on the cornea (methylcellulose) was used in each case, and the responses were amplified and stored in a computer. The results reported are a-wave amplitudes, which appear to be the ERG parameter most affected in clinical PDT. […] has the following structure: [drawing 3]

Series [2] has as its system CNV. As to conditions: FIG. 1B.
The subject of series [3] is wet age-related macular degeneration patient. The method, then: A patient presents with “wet” age-related macular degeneration (ARMD) in the foveal region of the right eye, and their condition is found to be suitable for photodynamic therapy (PDT). For one week prior to the date of scheduled treatment, the patient is given a topical dosage of brimonidine twice a day in a standard formulation.
The day of scheduled PDT treatment, the patient is administered 6 mg/M^2 of verteporfin. Fifteen minutes after the start of the infusion, the patient is administered Irradiance of 600 mW/cm^2 and total fluence of 50 Joules/cm^2 from an Argon light laser.
Brimonidine administration is continued every two days throughout the 12 week evaluation period.
Evaluation of neural health is assayed 1 week, 4 weeks, and 12 weeks following treatment by visual inspection of the retina and test of visual acuity.

The test system of series [4] is retina. As to conditions: cited from earlier work.

For `O=C1c2ccccc2CCC1Cc1c[nH]c(=S)[nH]1` (centres unmarked) [AGN 960], the “A Wave Amplitude PDT Eye” value in series [1] (300 ug/kg i.p. 1 hour prior to PDT, Ganzfeld dome) was determined as 212 ± 16 uV. Besides, the “A Wave Amplitude % Control” value in series [1] (300 ug/kg i.p. 1 hour prior to PDT) is reported as 101 ± 13* %. Further, the “A Wave Amplitude Control Eye” value in series [1] (300 ug/kg i.p., Ganzfeld dome) is 218 ± 29 uV. For the same molecule, the “loss in retinal function induced by PDT” value in series [1] is on record as “inhibited”.

With `Brc1c(NC2=NCCN2)ccc2nccnc12` [Brimonidine], the “A Wave Amplitude PDT Eye” value in series [1] (1000 ug/kg i.p. 1 hour prior to PDT, Grass photostimulator) was found to be 90 ± 15 uV. The “A Wave Amplitude % Control” value in series [1] (1000 ug/kg i.p. 1 hour prior to PDT) is reported as 103 ± 8* %. Also, in series [1] (1000 ug/kg i.p., Grass photostimulator), the “A Wave Amplitude Control Eye” value was determined as 91 ± 21 uV. The “post PDT decrease in retinal functionality” value in series [1] (FIG. 1A, compared to a saline control) is reported as “inhibits”. For the same molecule, the “loss in retinal function induced by PDT” value in series [1] was “inhibited”. In addition, the “area of ablation of CNV following PDT” value in series [2] is “does not affect”. Besides, the visual acuity result in series [3] (4 and 12 weeks following treatment) is “no discernable loss of vision”. For the same molecule, in series [3] (12 weeks following PDT treatment), the renewed neovascularization entry is listed as “No evidence”. In series [3] (monitoring period up to 12 weeks), the “optic nerve axon loss” value is recorded as “no evidence”. In addition, the “Fluorescein angiography leakage in the treated tissue” value in series [3] (one week after PDT and throughout the monitoring period) was “minimal leakage”. For the same molecule, the “visual inspection of the retina (whitening, edema)” value in series [3] (topical twice a day one week before PDT, then every two days, 1 to 12 weeks after PDT) is on record as “healthy with no whitening”.

Regarding verteporfin [vertporfin], the “effect of PDT on vascular outgrowth and associated edema” value in series [4] (about 6 mg/m^2, treatment necessary every few months) was “effective to slow vascular outgrowth and associated edema somewhat”. Also, the “retinal and optic nerve damage from PDT” value in series [4] (high doses (12 and 18 mg/m^2)) was “long term or permanent scarring of the retina, chronic absence of photoreceptor cells, and optic nerve atrophy”.
